Measured values: patent US6376682B1, “Compound with α-glucosidase inhibiting action and method for producing the same” (Takama System, Ltd., priority 2000, dated 2002)

How the values were obtained:
[1] = tested on: blood sugar elevation caused by sucrose loading; assay: Inhibiting effect on hyperglycemia in the case of sucrose loading; format: in vivo, male Wistar rats; conditions: rats; for Rate of inhibition of blood sugar elevation 30 minutes: po, 30 minutes after sucrose loading
Experimental: The test was oraly administered as an aqueous solution to fasting male Wistar rats (body weight: 130 to 170 g.
Next after 30 minutes, the sucrose was orally administered to the rats.
Then, 30 minutes, after the administered of the sugar, 0.4 ml of blood was taken from the neck artery of each animal with the animal under restraint without anesthesia (during blood collection only). following colling with ice water, the blood serum was separated by centrifuging, and the glucose concentration (blood sugar level) was measured by the glucose oxidase method (Glucose CII Test Wako).
The above-described test was performed for the novel compound SP (product of the present invention) and Acabose(clnventional roduct).

[2] = tested on: β-glucosidase originating in almonds; assay: Activity inhibiting effect on β-glucosidase; format: biochemical; conditions: substrate p-nitrophenol-β-D-glycopyronoside, pH 5.0
Experimental: β-glucosidase originating in almonds (manufactured by Sigma Co.) was dissolved in a 0.1 M acetic acid buffer solution (pH=5.0), and this solution was diluted to a concentration at which the substrate was hydrolyzed at the rate of 5 n/mol/ml/minute.
100 μL of the test drug was added to 50 μL of 10 mM p-nitrophenol-β-D-glycopyronoside (manufactured by Sigma Co.) used as a substrate, and this mixture was preheated for 5 minutes at 37° C.
Next, 50 μL of the enzyme solution was added, and a reaction was performed for 15 minutes. The reaction was stopped by adding 200 μL of a 0.2 M sodium carbonate solution.
The amount of p-nitrophenol produced was determined from the absorbance at 400 nm.
The substrate and test drug were both dissolved in a 0.1 M acetic acid buffer solution (pH=5.0) prior to use.

[3] = molecular target: T1, isomaltase originating in the small intestines of rats (Rattus norvegicus, UniProt P23739); assay: Inhibiting effect on isomaltase, rat jejunum brush border membrane crude enzyme; format: biochemical; conditions: times stronger than Acarbose
T1 construct: The brush border membrane obtained from the jejunum of male Wistar rats (body weight: 150 to 350 g) was used as a crude enzyme; from tissue; host or cells: jejunal brush border membrane of male Wistar rats
T1 sequence (P23739 whole entry): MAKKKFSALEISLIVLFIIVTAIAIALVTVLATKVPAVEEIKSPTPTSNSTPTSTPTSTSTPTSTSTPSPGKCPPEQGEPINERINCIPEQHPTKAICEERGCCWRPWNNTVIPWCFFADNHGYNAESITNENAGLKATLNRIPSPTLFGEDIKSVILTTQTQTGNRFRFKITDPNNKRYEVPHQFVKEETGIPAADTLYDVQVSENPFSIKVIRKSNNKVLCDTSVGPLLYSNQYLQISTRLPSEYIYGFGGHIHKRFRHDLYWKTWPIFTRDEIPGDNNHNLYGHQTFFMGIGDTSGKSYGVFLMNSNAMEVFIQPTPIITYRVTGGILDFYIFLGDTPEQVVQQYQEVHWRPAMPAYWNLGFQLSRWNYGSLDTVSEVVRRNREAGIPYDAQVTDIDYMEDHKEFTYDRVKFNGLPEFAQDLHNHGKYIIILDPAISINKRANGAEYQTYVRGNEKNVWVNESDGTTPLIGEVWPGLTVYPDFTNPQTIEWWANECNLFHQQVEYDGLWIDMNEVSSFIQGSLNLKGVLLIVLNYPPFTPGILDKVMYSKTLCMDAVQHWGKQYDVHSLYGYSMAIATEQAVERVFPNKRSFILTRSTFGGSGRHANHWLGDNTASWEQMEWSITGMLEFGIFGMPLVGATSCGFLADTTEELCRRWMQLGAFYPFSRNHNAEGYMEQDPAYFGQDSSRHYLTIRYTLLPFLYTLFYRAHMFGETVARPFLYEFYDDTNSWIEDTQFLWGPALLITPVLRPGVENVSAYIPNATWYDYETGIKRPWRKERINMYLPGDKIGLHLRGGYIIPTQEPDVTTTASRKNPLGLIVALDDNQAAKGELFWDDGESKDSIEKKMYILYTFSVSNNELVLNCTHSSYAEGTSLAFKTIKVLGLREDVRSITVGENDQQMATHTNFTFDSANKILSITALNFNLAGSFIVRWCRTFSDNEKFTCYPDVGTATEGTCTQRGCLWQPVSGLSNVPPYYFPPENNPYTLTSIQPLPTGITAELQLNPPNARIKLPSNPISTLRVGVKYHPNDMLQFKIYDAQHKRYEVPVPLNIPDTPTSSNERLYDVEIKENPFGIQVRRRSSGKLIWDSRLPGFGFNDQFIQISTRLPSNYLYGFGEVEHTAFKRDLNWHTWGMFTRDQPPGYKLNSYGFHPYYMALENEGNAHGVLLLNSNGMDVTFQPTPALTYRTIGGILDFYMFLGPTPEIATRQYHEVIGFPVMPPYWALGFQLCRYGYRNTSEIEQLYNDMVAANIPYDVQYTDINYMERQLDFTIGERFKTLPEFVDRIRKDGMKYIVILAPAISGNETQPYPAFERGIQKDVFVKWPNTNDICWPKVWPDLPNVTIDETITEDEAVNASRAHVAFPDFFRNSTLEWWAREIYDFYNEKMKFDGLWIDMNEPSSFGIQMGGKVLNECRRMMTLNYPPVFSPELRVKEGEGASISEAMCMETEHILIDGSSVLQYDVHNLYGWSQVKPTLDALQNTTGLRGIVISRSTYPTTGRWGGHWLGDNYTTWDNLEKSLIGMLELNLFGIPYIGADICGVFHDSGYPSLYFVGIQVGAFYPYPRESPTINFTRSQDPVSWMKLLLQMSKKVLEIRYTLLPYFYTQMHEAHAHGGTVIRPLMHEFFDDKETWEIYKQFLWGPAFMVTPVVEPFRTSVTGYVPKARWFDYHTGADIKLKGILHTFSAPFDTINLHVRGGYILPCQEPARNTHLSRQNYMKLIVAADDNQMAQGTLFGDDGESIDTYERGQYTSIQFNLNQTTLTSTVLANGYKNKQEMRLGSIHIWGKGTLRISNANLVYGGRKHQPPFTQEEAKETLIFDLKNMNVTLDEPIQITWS
Experimental: The brush border membrane obtained from the jejunum of male Wistar rats (body weight: 150 to 350 g) was used as a crude enzyme.
The brush border membrane was suspended in a 0.01 M maleic acid buffer solution (pH=6.0), and this suspension was diluted to a concentration at which the substrate was hydrolyzed at the rate of approximately 25 to 50 n/mol/ml/minute.
For maltase, sucrase and isomaltase, 100 μL of various concentrations of the test drug was added to 50 μL of respective 74 mM maltose, sucrose and isomaltose (used as substrates), and the resulting preparations were pre-heated for 2 to 3 minutes at 37° C.
Next, 50 μL of the enzyme solution was added, and a reaction was performed for 30 minutes. The reaction was stopped by adding 800 μL of water, and placing the reaction mixture in a water bath at 92 to 97° C. for 2 minutes.
The amount of glucose produced was measured by the glucose oxidase method (Glucose CII Test Wako).
In the above, the substrates and test drug were both dissolved in a maleic acid buffer solution (pH=6.0) prior to use.

| SMILES | Rate of inhibition of blood sugar elevation 30 minutes ([1]; 5 mg/kg) | Rate of inhibition of blood sugar elevation 30 minutes ([1]; 10 mg/kg) | Rate of inhibition of blood sugar elevation 30 minutes ([1]; 25 mg/kg) | Activity inhibiting effect on β-glucosidase [2] | Effect in inhibiting the elevation of blood sugar levels compared with Acarbose ([1]; sucrose loading) | Inhibitory effect against isomaltose relative to Acarbose [3] |
| --- | --- | --- | --- | --- | --- | --- |
| C[C@H]1O[C@H](O[C@H]2[C@H](O)[C@@H](O)[C@@H](O[C@H]3[C@H](O)[C@@H](O)C(O)O[C@@H]3CO)O[C@@H]2CO)[C@H](O)[C@@H](O)[C@@H]1N[C@H]1C=C(CO)[C@@H](O)[C@H](O)[C@H]1O (stereo partly drawn) [Acarbose, reference compound] | 33.4 ± 6.2 | 48.5 ± 6.9 | 73.8 ± 5.2 | – | – | – |
| O=S(=O)([O-])OC(CO)C(O)C[S+]1CC(O)C(O)C1CO (stereo not drawn) [SP] | 40.5 ± 2.3 | 62.1 ± 3.8 | 89.1 ± 3.5 | no activity inhibiting effect | stronger effect in inhibiting the elevation of blood sugar levels than Acarbose | more than 200 times |
